Results taken from article PMC4104029, “Mechanism of Action of Compound-13: An α1-Selective Small Molecule Activator of AMPK” (Chemistry & Biology, 2014).

Tested on: 5′-nucleotidase
Assay: 5′-Nucleotidase assay
Format: biochemical
Settings: concentrations up to 100 μM; data not shown
Experimental: Additional enzyme assays. Glycogen phosphorylase (EC 2.4.1.1) was assayed in the physiological direction in reactions containing 20 mM BES pH 6.8, 20 mM phosphate, 1 mM NADP+, 0.5 mM MgCl2, 0.1 % glycogen, 4 µM glucose-1,6-bisphosphate, 0.5 mM DTT, 0.025 % BSA, 0.6 U/ml phosphoglucomutase and 3 U/ml glucose-6-phosphate dehydrogenase (G6PDH). FBP1 (EC 3.1.3.11) was assayed in reactions containing 50 mM TES pH 7.4, 0.1 […]
mM 2-mercaptoethanol, 25 µM fructose-1,6-bisphosphate, 0.8 U/ml phosphoglucoisomerase and 0.5 U/ml G6PDH. PFK1 (EC 2.7.1.11) was assayed in reactions containing 50 mM TES pH 7.4, 2 mM MgCl2, 0.05 % BSA, 2 mM 2-mercaptoethanol, 0.5 mM fructose-6-phosphate, 1 mM ATP, 0.2 mM NADH, 0.5 U/ml aldolase, 15 U/ml triosephosphate isomerase and 2 U/ml α-glycerophosphate dehydrogenase. […] All assays were performed in a final volume of 250 µl and were monitored by changes in fluorescence (FBP1 - λex 340nm, λem 450nm) or A340. […] Liberated phosphate was determined using malachite green reagent. […] The formation of pyrophosphate (PPi) was monitored by reduction of PPi-molybdate complexes using 2-mercaptoethanol and Fiske-Subbarow reducer (Kuang, et al., 2007). […]
Tricistronic expression vectors were constructed using a strategy inspired by Neumann et al (Neumann, et al., 2003). […] The open reading frame of AMPKα1 and AMPKα2 was inserted after the 6×His tag as a Bamh1-Not1 fragment. […]

For `O=P(O)(O)c1ccc(-c2cc(O)on2)o1` [Compound C2, 5-(5-hydroxyl-isoxazol-3-yl)-furan-2-phosphonic acid], the “effect on enzyme activity” value was “None of these enzymes were affected”.
